Experimental data reported in patent US9394297B2, “Amides as pim inhibitors” (AMGEN INC., priority 2012, dated 2016).
Where a name gives a salt, the structure may show the parent alone.

Columns and labels:
Assay type in all cases: biochemical
Pim-1 [1] = target: T1, Pim-1 (Homo sapiens (Human), UniProt P11309); assay: Pim enzyme assay (HTRF, 96-well), Pim-1; details: full length recombinant Pim-1, biotinylated-BAD (S112) peptide, 10-point curve, 2 h RT, read-out: Pim-1 IC50 IP
Excerpt: (§1) These cDNAs were used as templates in PCR reactions to produce full-length DNA clones of the PIMs. […] PCR products were digested with BclI and EcoRI for Pim-1 and BamHI and EcoRI for Pim-2 and ligated into a modified baculovirus transfer vector (pFastBac1) cleaved with BamHI and EcoRI. For bacterial expression, the same cleaved PCR products encoding Pim-1 or Pim-2 were ligated into a modified E. coli expression vector pET28(a) cleaved with BamHI and EcoRI. Amino-terminal hexahistidine tags followed by a thrombin cleavage site were previously added to the vectors using standard methods of molecular biology.
(§2) Recombinant baculoviruses expressing Pim-1 or Pim-2 were made using standard methods (Fastbac manual, Invitrogen, Carlsbad, Calif.). […] Cells were harvested by centrifugation and frozen at −80 C. For E. coli expression, cells carrying pET28-His6-Th-Pim-1 or pET28-His6-Th-Pim-2 were picked from a single colony and grown o/n in LB media. The o/n culture was used to inoculate a 2 liter flask with 500 mL media. This was grown o/n and used to inoculate 15-20 liters of Terrific Broth in a New Brunswick Scientific fermentor. The E. coli were grown at 37° C. to and OD600 >1.6. The temperature was dropped to 18° C. and o/n expression was induced with 0.5 mM IPTG. Cells were harvested by centrifugation and frozen at −80° C.
(§3) The slurry was centrifuged at 1,000×g for 5 min, the supernatant decanted, and the resin suspended in 40 mL of lysis wash buffer (lysis buffer at 0.75 M NaCl). This step was repeated 3× and the resin was transferred to a 2.5 cm glass column. Ten column volumes of wash buffer (0.05 M HEPES, pH 8.0, 0.1 M NaCl, 0.01 M 2-mercaptoethanol, 10%(w/v) glycerol) were applied to the resin followed by 10 column volumes of elution buffer (0.05 M HEPES, pH 8.0, 0.25 M NaCl, 0.01 M 2-mercaptoethanol, 10%(w/v) glycerol, 0.1 M imidazole). Fractions were analyzed by SDS-PAGE and those containing the protein of interest were pooled and concentrated. The concentrated protein was applied to an Amersham Superdex 75 (XK 26/60) column equilibrated in 0.025 M Tris-HCl, pH 7.5, 0.1 M NaCl, 0.01 M 2-mercaptoethanol, 10% (w/v) glycerol. […] Fractions containing the monomeric protein of interest were pooled, concentrated to ˜2 mg/mL, and stored at −80° C.
(§4) The phosphorylation of biotinylated-BAD (S112) peptide by full length recombinant Pim-1, Pim-2, or Pim-3 protein was detected with streptavidin:Allophycocyanin (APC) conjugate and a europium (Eu) labeled antibody directed against phosphorylated-BAD (S112). […] The fluorescence is directly proportional to the amount of phosphorylated BAD peptide present in the reaction. […] A reference compound was included on each assay plate in order to validate that plate; on one plate of every assay run, two additional reference compounds were included. The final buffer conditions were as follows: 60 mM Hepes, pH 7.0, 0.05% BSA, 2 mM DTT. Incubations were carried out at RT (22° C.) for 2 h for Pim-1, 1 hour and 30 min for Pim-3, and 45 min for Pim-2. The reaction was stopped by the addition of 3 mM EDTA, and fluorescence was measured by an HTRF® Rubystar microplate reader. For each plate, percent of control (POC) values were calculated for each well. Values for the IC50 IP were estimated using a standard 4-parameter logistic model.

Pim-2 = Pim-2 (Homo sapiens (Human), UniProt Q9P1W9); assay: Pim enzyme assay (HTRF, 96-well), Pim-2; details: full length recombinant Pim-2, biotinylated-BAD (S112) peptide, 10-point curve, 45 min RT, read-out: Pim-2 IC50 IP
Excerpt: as §1, §2, §3, §4

Pim-1 [2] = target: T1, Pim-1; assay: Pim-Mn enzyme assay (HTRF, 384-well), Pim-1; details: Pim-1 enzyme 5 pM, ATP 1.5 μM, BAD (S112) 0.5 μM, HTRF, 22-point curve; read-out: Pim-1-Mn IC50 IP

Sequence of Pim-2 (Q9P1W9 whole entry): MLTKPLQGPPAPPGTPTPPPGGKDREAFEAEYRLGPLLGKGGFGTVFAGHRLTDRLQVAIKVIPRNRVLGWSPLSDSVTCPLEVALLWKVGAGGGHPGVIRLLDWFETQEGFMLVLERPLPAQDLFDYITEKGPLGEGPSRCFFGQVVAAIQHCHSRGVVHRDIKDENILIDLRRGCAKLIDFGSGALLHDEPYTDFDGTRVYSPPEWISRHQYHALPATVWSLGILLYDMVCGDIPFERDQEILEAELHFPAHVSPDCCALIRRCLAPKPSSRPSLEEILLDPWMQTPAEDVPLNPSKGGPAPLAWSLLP
T1 sequence (P11309 whole entry): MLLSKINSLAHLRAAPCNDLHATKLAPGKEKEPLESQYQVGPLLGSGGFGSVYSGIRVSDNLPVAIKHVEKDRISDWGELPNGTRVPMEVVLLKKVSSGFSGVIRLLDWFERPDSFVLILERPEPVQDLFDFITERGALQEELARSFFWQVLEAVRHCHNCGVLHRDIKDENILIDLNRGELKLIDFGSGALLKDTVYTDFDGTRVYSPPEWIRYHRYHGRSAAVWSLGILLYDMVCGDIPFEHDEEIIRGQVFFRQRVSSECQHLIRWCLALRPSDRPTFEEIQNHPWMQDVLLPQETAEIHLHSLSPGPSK

SMILES: COC(=O)N(c1ccccc1)c1ccc2cccc(-c3cc4c([nH]3)CCNC4=O)c2n1 [Example 46, Methyl (8-(4-oxo-4,5,6,7-tetrahydro-1H-pyrrolo[3,2-c]pyridin-2-yl)-2-quinolinyl)phenylcarbamate]
- IC50 (Pim-1 [1]): 58.1 nM
- IC50 (Pim-2): 125 nM

SMILES: O=C1NCCc2[nH]c(-c3cccc4ccc(-c5ccccc5)nc34)cc21 [Example 226, 2-(2-phenylquinolin-8-yl)-6,7-dihydro-1H-pyrrolo[3,2-c]pyridin-4(5H)-one]
- IC50 (Pim-1 [1]): 25.3 nM
- IC50 (Pim-2): 38.1 nM

SMILES: O=c1[nH]ccc2[nH]c(-c3cccc4ccc(Nc5c(F)cccc5Cl)nc34)cc12 [Example 12, 2-(2-((2-chloro-6-fluorophenyl)amino)quinolin-8-yl)-1H-pyrrolo[3,2-c]pyridin-4(5H)-one]
- IC50 (Pim-1 [1]): 2 nM
- IC50 (Pim-2): 11 nM

SMILES: N[C@@H]1CCC[C@H](Nc2ccc3cccc(-c4cc5c([nH]4)CCNC5=O)c3n2)C1 (single isomer, unassigned) [Example 121, 2-(2-((cis-3-aminocyclohexyl)amino)quinolin-8-yl)-6,7-dihydro-1H-pyrrolo[3,2-c]pyridin-4(5H)-one]
- IC50 (Pim-1 [1]): 0.6 nM
- IC50 (Pim-2): 22.6 nM

SMILES: Cc1cccc(Oc2ccc3cccc(-c4cc5c([nH]4)CCNC5=O)c3n2)c1 [Example 43, 2-(2-(3-methylphenoxy)-8-quinolinyl)-1,5,6,7-tetrahydro-4H-pyrrolo[3,2-c]pyridin-4-one]
- IC50 (Pim-1 [1]): 17.9 nM
- IC50 (Pim-2): 47.8 nM

SMILES: O=C1NCCc2[nH]c(-c3cccc4cnc(Nc5ccccc5)nc34)cc21 [Example 251, 2-(2-(phenylamino)quinazolin-8-yl)-6,7-dihydro-1H-pyrrolo[3,2-c]pyridin-4(5H)-one]
- IC50 (Pim-1 [1]): 8.3 nM
- IC50 (Pim-2): 13.5 nM

SMILES: C[C@@H](Nc1ccc2cccc(-c3cc4c([nH]3)CCNC4=O)c2n1)c1ccccc1 [Example 111, (R)-2-(2-((1-phenylethyl)amino)quinolin-8-yl)-6,7-dihydro-1H-pyrrolo[3,2-c]pyridin-4(5H)-one]
- IC50 (Pim-1 [1]): 19 nM
- IC50 (Pim-2): 181 nM

SMILES: Cn1cc(-c2ccc3ccc(F)c(-c4cc5c([nH]4)CCNC5=O)c3n2)cn1 [Example 229, 2-(7-fluoro-2-(1-methyl-1H-pyrazol-4-yl)quinolin-8-yl)-6,7-dihydro-1H-pyrrolo[3,2-c]pyridin-4(5H)-one]
- IC50 (Pim-1 [1]): 92 nM
- IC50 (Pim-2): 92 nM
- IC50 (Pim-1 [2]): 90.9 nM

SMILES: COC(=O)[C@H](C)Nc1nc2c(-c3cc4c([nH]3)CCNC4=O)cccc2nc1C [Example 136, (S)-methyl 2-((3-methyl-8-(4-oxo-4,5,6,7-tetrahydro-1H-pyrrolo[3,2-c]pyridin-2-yl)quinoxalin-2-yl)amino)propanoate]
- IC50 (Pim-1 [1]): 49.5 nM
- IC50 (Pim-2): 154 nM

SMILES: Cc1cccc(C)c1Oc1ccc2cccc(-c3cc4c([nH]3)CCNC4=O)c2n1 [Example 101]
- IC50 (Pim-1 [1]): 19.8 nM
- IC50 (Pim-2): 80.9 nM

SMILES: Nc1ccc(-c2ccc3cccc(-c4cc5c([nH]4)CCNC5=O)c3n2)c(F)c1 [Example 91, 2-(2-(4-amino-2-fluorophenyl)quinolin-8-yl)-6,7-dihydro-1H-pyrrolo[3,2-c]pyridin-4(5H)-one]
- IC50 (Pim-1 [1]): 10.6 nM
- IC50 (Pim-2): 46.1 nM

SMILES: Cc1nc2cccc(-c3cc4c([nH]3)CCNC4=O)c2nc1N1CCCC1 [Example 138, 2-(2-methyl-3-(pyrrolidin-1-yl)quinoxalin-5-yl)-6,7-dihydro-1H-pyrrolo[3,2-c]pyridin-4(5H)-one]
- IC50 (Pim-1 [1]): 34.8 nM
- IC50 (Pim-2): 30.1 nM

SMILES: O=C1NCCc2[nH]c(-c3cccc4ccc(N[C@@H]5CCCNC5)nc34)cc21 [Example 124, (R)-2-(2-(piperidin-3-ylamino)quinolin-8-yl)-6,7-dihydro-1H-pyrrolo[3,2-c]pyridin-4(5H)-one]
- IC50 (Pim-1 [1]): 6.4 nM
- IC50 (Pim-2): 141 nM

SMILES: CS(=O)(=O)c1ccc(-c2ccc3cccc(-c4cc5c([nH]4)CCNC5=O)c3n2)c(F)c1 [Example 86, 2-(2-(2-fluoro-4-(methylsulfonyl)phenyl)quinolin-8-yl)-6,7-dihydro-1H-pyrrolo[3,2-c]pyridin-4(5H)-one]
- IC50 (Pim-1 [1]): 49.5 nM
- IC50 (Pim-2): 143 nM

SMILES: Cc1nc2cccc(-c3cc4c([nH]3)CCNC4=O)c2nc1N[C@@H](C)C(N)=O [Example 129, (S)-2-((3-methyl-8-(4-oxo-4,5,6,7-tetrahydro-1H-pyrrolo[3,2-c]pyridin-2-yl)quinoxalin-2-yl)amino)propanamide]
- IC50 (Pim-1 [1]): 99.3 nM
- IC50 (Pim-2): 227 nM

SMILES: O=c1[nH]ccc2[nH]c(-c3cccc4ccc(Nc5ccccc5)nc34)nc12 [Example 189, 2-(2-(phenylamino)quinolin-8-yl)-1H-imidazo[4,5-c]pyridin-4(5H)-one 2,2,2-trifluoroacetate]
- IC50 (Pim-1 [1]): 28.6 nM
- IC50 (Pim-2): 71.8 nM

SMILES: O=C1NCCc2[nH]c(-c3cccc4cnc(C5(c6ccccc6)CC5)nc34)cc21 [Example 244, 2-(2-(1-phenylcyclopropyl)quinazolin-8-yl)-6,7-dihydro-1H-pyrrolo[3,2-c]pyridin-4(5H)-one]
- IC50 (Pim-1 [1]): 6.9 nM
- IC50 (Pim-2): 17.9 nM

SMILES: O=C1NCCc2[nH]c(-c3cccc4ccc(OCc5ccccc5)nc34)cc21 [Example 20, 2-(2-(benzyloxy)quinolin-8-yl)-6,7-dihydro-1H-pyrrolo[3,2-c]pyridin-4(5H)-one]
- IC50 (Pim-1 [1]): 38.5 nM
- IC50 (Pim-2): 98.4 nM

SMILES: O=C1NCCc2[nH]c(-c3cccc4ccc(Cl)nc34)cc21 [Example 1, 2-(2-chloroquinolin-8-yl)-6,7-dihydro-1H-pyrrolo[3,2-c]pyridin-4(5H)-one]
- IC50 (Pim-1 [1]): 315 nM
- IC50 (Pim-2): 636 nM

SMILES: Cc1ccc(C(N)=O)cc1-c1ccc2cccc(-c3cc4c([nH]3)CCNC4=O)c2n1 [Example 232, 4-methyl-3-(8-(4-oxo-4,5,6,7-tetrahydro-1H-pyrrolo[3,2-c]pyridin-2-yl)-2-quinolinyl)benzamide]
- IC50 (Pim-1 [1]): 23.3 nM
- IC50 (Pim-2): 52.9 nM

SMILES: COC(=O)[C@@H](C)Nc1nc2c(-c3cc4c([nH]3)CCNC4=O)cccc2nc1C [Example 137, (R)-methyl 2-((3-methyl-8-(4-oxo-4,5,6,7-tetrahydro-1H-pyrrolo[3,2-c]pyridin-2-yl)quinoxalin-2-yl)amino)propanoate]
- IC50 (Pim-1 [1]): 96.7 nM
- IC50 (Pim-2): 74.1 nM

SMILES: C[C@H](Nc1ccc2cccc(-c3cc4c([nH]3)CCNC4=O)c2n1)c1ccccc1 [Example 112, (S)-2-(2-((1-phenylethyl)amino)quinolin-8-yl)-6,7-dihydro-1H-pyrrolo[3,2-c]pyridin-4(5H)-one]
- IC50 (Pim-1 [1]): 29 nM
- IC50 (Pim-2): 182 nM

SMILES: O=c1[nH]cnc2[nH]c(-c3cccc4ccc(Cl)nc34)cc12 [Example 19, 6-(2-chloroquinolin-8-yl)-3H-pyrrolo[2,3-d]pyrimidin-4(7H)-one trifluoroacetate]
- IC50 (Pim-1 [1]): 133 nM
- IC50 (Pim-2): 908 nM

SMILES: O=C1NCCc2[nH]c(-c3cccc4ccc(Nc5cccc(Cl)c5)nc34)cc21 [Example 40, 2-(2-((3-chlorophenyl)amino)-8-quinolinyl)-1,5,6,7-tetrahydro-4H-pyrrolo[3,2-c]pyridin-4-one]
- IC50 (Pim-1 [1]): 1.8 nM
- IC50 (Pim-2): 14.3 nM

SMILES: O=C1NCCc2[nH]c(-c3cccc4ccc(Nc5cncnc5)nc34)cc21 [Example 13, 2-(2-(pyrimidin-5-ylamino)quinolin-8-yl)-6,7-dihydro-1H-pyrrolo[3,2-c]pyridin-4(5H)-one]
- IC50 (Pim-1 [1]): 0.8 nM
- IC50 (Pim-2): 2.8 nM
